Source: paper PMC5187537, “Antioxidant Activity of Oat Proteins Derived Peptides in Stressed Hepatic HepG2 Cells” (Antioxidants, 2016)
Peptide text beside a SMILES is read from it.

What was measured:
[1] = Oxygen radical absorbance capacity (ORAC) assay; details: fluorescein 0.08 µM, AAPH 150 mM, 37 °C, 50 min, potassium phosphate buffer pH 7.4 75 mM, peptides 100 and 200 µM; triplicate, mean ± STDEV
Experimental: The ORAC assay was performed as previously described. The decay of fluorescein (0.08 µM) by AAPH (150 mM) at 37 °C was recorded at 1 min intervals over 50 min using a BioTek™ FL × 800™ fluorescent microplate reader (Fisher Scientific, Nepean, ON, Canada) with fluorescence filters (excitation 485/20 nm, emission 528/20 nm). Potassium phosphate buffer (pH 7.4, 75 mM) was used to dissolve peptides (100 and 200 µM) and Trolox standards (6.25–100 µM). Data analysis was done with Gen5^TM software (Fisher Scientific, Nepean, ON, Canada), and ORAC values were expressed as µM Trolox Equivalent (TE)/µM peptide using the standard curve.

[2] = test system: glutathione (GSH) of HepG2 cells; experiment: Cellular glutathione, enzymatic recycling method; format: cell-based, Human; details: 100 µM peptide 24 h, then AAPH 24 h, p < 0.05
Experimental: Cells were seeded at 1 × 10^6 cells/plate in 60 mm tissue culture plates and allowed to grow for 24 h. In each plate, cells were washed twice with 4 mL of PBS (pH 7.2), and treated with 4 mL peptide samples (P1, P2, P6, P7) dissolved in culture media at 50 or 100 µM for 24 h. After removal of peptide solutions, cells were washed twice with 4 mL of PBS/plate and treated with 4 mL of […] dissolved in culture media and allowed to incubate for 24 h. Cells in each culture plate were harvested by incubation (5 min) with 0.5 mL of 0.25% trypsin, addition of 1 mL of culture media and centrifugation at 1000× g for 5 min. Cell pellets were washed with ice cold PBS (500 µL each) until no pink color was observed, re-suspended in ice cold PBS (300 µL) for the superoxide dismutase (SOD) assay, 500 µL for glutathione peroxidase (GPx) and catalase (CAT) assays. For total glutathione assay, 300 µL of 5% ice cold sulfosalicylic acid bubbled with 100% nitrogen was used for cell lysis. Cells were lysed by sonication on ice for 1 min using a probe-type sonicator (Vibra-Cell, Sonics and Materials Inc., Newtown, CT, USA) pulsing at 15 s on and 10 s off cycles. Following centrifugation of cell lysate at 13,000× g (4 °C), pellets containing cell debris were discarded, while supernatants were used for determination of glutathione content. Protein contents were determined using a modified Lowry assay.
The assay was based on the enzymatic recycling method adjusted for 96-well plates. All solutions were prepared in sodium phosphate buffer (125 mM, pH 7.5) that contained 6.3 mM EDTA (ethylenediaminetetraacetic acid). In summary, 60 µL of 0.35 mM NADPH and 10 µL of 6 mM DTNB were added to wells, this was followed by the addition of 20 µL cell lysate or glutathione (GSH) standard. To initiate the reaction, 10 µL of glutathione reductase (5 IU/mL) was added and the rate of reaction between GSH from cell lysate and DTNB was measured at 412 nm. Total glutathione of cell lysates was calculated based on a standard curve of glutathione.

HepG2 cells = format: cell-based, Human; details: 50 or 100 µM peptide 24 h, then 20 mM AAPH 24 h, MTT
Experimental: Human hepatocellular carcinoma (HepG2) cells were purchased from the American Type Culture Collection (ATCC; Manassas, VA, USA). They were cultured at 37 °C in a humidified incubator with 5% CO2 and 95% air. Dulbecco’s Minimal Essential Media (DMEM) supplemented with 10% (v/v) Fetal Bovine Serum was used for the maintenance of cells. […] The MTT (3-(4,5-dimethylthiazol-2-yl)-2,5-diphenyltetrazolium bromide) assay, as described in an earlier research, was used for cytotoxicity and cytoprotective tests. […] Following another 24 h incubation, cells were washed twice with 200 µL of PBS. Ten µL of MTT solution (5 mg/mL in PBS) and 100 µL of media were added to each well. After 1 h, MTT solution was removed, and 50 µL DMSO were added. Absorbances were recorded at 570 nm with 630 nm background subtraction using a BioTek Epoch™ microplate reader (Fisher Scientific, Nepean, ON, Canada). Untreated cells were used as negative control (NC) and cells treated with only AAPH were used as positive control (PC).

Structure (SMILES) | ORAC value (peroxyl radical scavenging activity) [1] | GSH concentration relative to normal cells [2] | Cytoprotective effect against AAPH-induced damage (HepG2 cells)
CC[C@H](C)[C@H](NC(=O)[C@H](Cc1ccc(O)cc1)NC(=O)[C@@H](NC(=O)[C@H](CC(C)C)NC(=O)CN)C(C)C)C(=O)N[C@@H](CC(C)C)C(=O)O [P2] (H-GLVYIL-OH; N-terminus and C-terminus assumed) | 0.67 ± 0.02 µM TE/µM | further increased | 
CC[C@H](C)[C@H](NC(=O)[C@H](Cc1ccc(O)cc1)NC(=O)[C@@H](NC(=O)[C@H](CC(C)C)NC(=O)CNC(=O)[C@@H]1CCCN1C(=O)[C@H](C)NC(=O)[C@H](CC(N)=O)NC(=O)[C@H](Cc1c[nH]cn1)NC(=O)[C@@H](N)Cc1ccc(O)cc1)C(C)C)C(=O)N[C@@H](CC(C)C)C(=O)O [P6] (H-YHNAPGLVYIL-OH; N-terminus and C-terminus assumed) | 0.14–0.61 µM TE/µM | further increased | cytoprotective
